{"source": "patent US11560529B2", "about": "“Galactarate based metal sequestration composition” (ZestBio, Inc., priority 2019, dated 2023)", "key": {"[1]": {"assay": "Calcium sequestration by titration with calcium chloride in presence of sodium oxalate until slight turbidity", "type": "physicochemical", "conditions": "20° C.; for Calcium sequestration capacity, mg Ca^2+/g mixture: Table 4", "experimental": "Salt mixtures of galactaric acid were prepared to the desired composition by mixing sodium galactarate with either sodium borate decahydrate or sodium aluminate to a final weight of 10 grams. In an alternative preparation, galactaric acid was mixed with either sodium borate decahydrate or sodium aluminate. The resulting mixture was dissolved in a stoichiometric solution of sodium hydroxide.\nThe efficacy of different mixtures of galactaric acid salts and oxyanion salts in sequestering calcium at 20° C. were tested. First, salt mixtures were dissolved in deionized water at 5 g/L. Sodium oxalate stock solution, prepared at 20 g/Land pH 10, was then added to the mixture solution to yield a final concentration of 1 g/L sodium oxalate. The pH was adjusted to 10 for mixtures containing borate as the oxyanion and to 11 for mixtures containing aluminate as the oxyanion with 1M sodium hydroxide or 1M hydrochloric acid. The resulting solutions were aliquoted to 50 mL and slowly titrated with stirring by addition of a 15 g/L anhydrous calcium chloride solution at a rate of 1 mL every 3 minutes until slight turbidity was observed, indicating saturation of calcium by the chelant mixture.\nThe effect of pH on calcium sequestration by mixtures of galactaric acid salts and oxyanion salts at room temperature was assayed. Mixtures of 70% disodium galactarate and 30% sodium aluminate and 60% disodium galactarate and 40% sodium borate decahydrate were prepared. The resulting mixtures were dissolved in deionized water at 5 g/L and the calcium sequestering capacity was determined, as described above, with the exception that the pH was adjusted to the indicated pH with either 1M sodium hydroxide or 1M hydrochloric acid.\nThe calcium chelating capacity of a variety of standard compounds and mixtures was determined for 5 g/L solutions dissolved in water, as described above. In all instances the temperature was 20° C. and except where noted, the pH of solution was adjusted to 10 before determination."}, "[2]": {"assay": "Qualitative solubility of sodium galactarate in water-based solutions", "conditions": "for solubility at 15 min / solubility at 50 min: 20 °C, thermodynamic from solid, 0.5 g in 50 mL, 20 C, stirring; for solubility at 15 min: Solubility after 15 min.; for solubility at 50 min: Solubility after 50 min.", "experimental": "To characterize the solubility of sodium galactarate, 0.5M solutions of alkali salts and non-alkali base were prepared in deionized water. To 50 mL of each solution 0.5 g of sodium galactarate, was added at 20° C. with stirring."}, "[3]": {"conditions": "pH 10, aqueous buffer, 0.5M NH4OH (pH 10)"}}, "data": [{"smiles": "O=C([O-])CC(O)(CC(=O)[O-])C(=O)[O-].[Na+].[Na+].[Na+]", "note": "[Trisodium citrate, trisodium citrate]", "values": [{"measurement": "Calcium sequestration capacity, mg Ca^2+/g mixture", "setting": "[1]; pH 10, 5 g/L in water", "result": 32, "unit": "mg Ca^2+/g mixture"}]}, {"smiles": "O=C([O-])[C@@H](O)[C@H](O)[C@H](O)[C@@H](O)C(=O)[O-].[Na+].[Na+]", "note": "[sodium galactarate]", "values": [{"measurement": "Effect of lithium ions present in solution on dissolution", "setting": "[2]; 20° C.", "result": "accelerated dissolution"}, {"measurement": "Effect of sodium ions in solution (sodium chloride or sodium hydroxide) on dissolution", "setting": "[2]; 20° C.", "result": "inhibited the dissolution"}, {"measurement": "Solubility (in words)", "setting": "[2]; 20° C.", "result": "soluble in water-based solutions and under basic conditions"}, {"measurement": "solubility at 15 min", "setting": "[2]; aqueous buffer, 0.5M LiCl", "result": "> 10000", "unit": "µg/mL"}, {"measurement": "solubility at 15 min", "setting": "[2]; aqueous buffer, 0.5M NaOH", "result": "< 10000", "unit": "µg/mL"}, {"measurement": "solubility at 50 min", "setting": "[2]; aqueous buffer, 0.5M LiCl", "result": "> 10000", "unit": "µg/mL"}, {"measurement": "solubility at 50 min", "setting": "[2]; aqueous buffer, 0.5M NaOH", "result": "< 10000", "unit": "µg/mL"}, {"measurement": "solubility at 15 min", "setting": "[2]; [3]", "result": "< 10000", "unit": "µg/mL"}, {"measurement": "solubility at 50 min", "setting": "[2]; [3]", "result": "> 10000", "unit": "µg/mL"}, {"measurement": "solubility at 15 min", "setting": "[2]; saline or isotonic, 0.5M NaCl", "result": "< 10000", "unit": "µg/mL"}, {"measurement": "solubility at 50 min", "setting": "[2]; saline or isotonic, 0.5M NaCl", "result": "< 10000", "unit": "µg/mL"}, {"measurement": "solubility at 15 min", "setting": "[2]; water, Water", "result": "< 10000", "unit": "µg/mL"}, {"measurement": "solubility at 50 min", "setting": "[2]; water, Water", "result": "> 10000", "unit": "µg/mL"}, {"measurement": "Calcium sequestration, mg Ca^2+/g mixture", "setting": "[1]; Table 2, no oxyanion salt, pH not stated, 5 g/L, 1 g/L sodium oxalate", "result": 5, "unit": "mg Ca^2+/g mixture"}]}, {"smiles": "O.O.O=C([O-])CN(CCN(CC(=O)O)CC(=O)O)CC(=O)[O-].[Na+].[Na+]", "note": "[EDTA, Ethylenedinitrilo Tetraacetic Acid Disodium Salt Dihydrate]", "values": [{"measurement": "Calcium sequestration capacity, mg Ca^2+/g mixture", "setting": "[1]; pH 10, 5 g/L in water", "result": 104, "unit": "mg Ca^2+/g mixture"}]}, {"smiles": "O=C([O-])CC[C@@H](C(=O)[O-])N(CC(=O)[O-])CC(=O)[O-].[Na+].[Na+].[Na+].[Na+]", "note": "[GLDA, N,N-Dicarboxymethyl glutamic acid tetrasodium salt]", "values": [{"measurement": "Calcium sequestration capacity, mg Ca^2+/g mixture", "setting": "[1]; pH 10, 5 g/L in water", "result": 80, "unit": "mg Ca^2+/g mixture"}, {"measurement": "Calcium sequestration capacity, mg Ca^2+/g mixture", "setting": "[1]; pH 11, 5 g/L in water", "result": 132, "unit": "mg Ca^2+/g mixture"}]}]}
